Assay results taken from patent publication US20130338106A1, “COMPOUNDS INHIBITING LEUCINE-RICH REPEAT KINASE ENZYME ACTIVITY” (priority 2011, published 2013).

Target: T1, LRRK2 G2019S mutant kinase (Homo sapiens, UniProt Q5S007, G2019S)
T1 construct: GST; purchased Invitrogen PV4882
Assay: LRRK2 G2019S LanthaScreen TR-FRET kinase assay
Type: biochemical
Details: LRRK2 G2019S GST-tagged protein, 100 μM ATP, LRRKtide substrate; read-out: IC50 (potency)
Experimental: Activity of compounds against LRRK2 G2019S mutant kinase function was tested in a LANTHAScreen® assay as follows: Compounds were diluted in 100% DMSO to the desired test concentrations in white, low-volume 384-well plates (PerkinElmer ProxiPlate® PN: 6008280). TR-FRET kinase reactions (10 μL) were performed with 75 nM Fluorescein-ERM (LRRKtide, Invitrogen, PN:PV4901) substrate in a final assay buffer containing 100 μM ATP and 2 mM DTT diluted in commercially available Kinase Buffer S (Invitrogen PN: PV5213). The final solvent concentration in the assay was 1% DMSO. Reactions were initiated with the addition of 10 ng/well of LRRK2 02019S, GST-tagged protein (Invitrogen PN: PV4882). After incubation of the foil sealed reaction plates at room temperature with low speed mixing for 1 hour, the kinase reaction was stopped and the amount of substrate phosphorylation was detected by addition of 10 μL of 10 mM EDTA and 2 nM Tb-anti-pERM (pLRRKtide antibody, Invitrogen, PN: PV4898) antibody in TR-FRET dilution buffer (Invitrogen PN: PV3574). After a 30 minute incubation at room temperature with low speed mixing, foil seals were removed and measurements were obtained on a PerkinElmer EnVision with excitation 340 nm, emission 520 nm (channel 1): 495 nm (channel 2) settings. Generation of raw data and workup of data to derive the IC50 (potency) and maximal inhibition at concentrations tested were performed using Merck's Assay Data Analyzer (ADA) software.

T1 sequence (Q5S007 whole entry G2019S): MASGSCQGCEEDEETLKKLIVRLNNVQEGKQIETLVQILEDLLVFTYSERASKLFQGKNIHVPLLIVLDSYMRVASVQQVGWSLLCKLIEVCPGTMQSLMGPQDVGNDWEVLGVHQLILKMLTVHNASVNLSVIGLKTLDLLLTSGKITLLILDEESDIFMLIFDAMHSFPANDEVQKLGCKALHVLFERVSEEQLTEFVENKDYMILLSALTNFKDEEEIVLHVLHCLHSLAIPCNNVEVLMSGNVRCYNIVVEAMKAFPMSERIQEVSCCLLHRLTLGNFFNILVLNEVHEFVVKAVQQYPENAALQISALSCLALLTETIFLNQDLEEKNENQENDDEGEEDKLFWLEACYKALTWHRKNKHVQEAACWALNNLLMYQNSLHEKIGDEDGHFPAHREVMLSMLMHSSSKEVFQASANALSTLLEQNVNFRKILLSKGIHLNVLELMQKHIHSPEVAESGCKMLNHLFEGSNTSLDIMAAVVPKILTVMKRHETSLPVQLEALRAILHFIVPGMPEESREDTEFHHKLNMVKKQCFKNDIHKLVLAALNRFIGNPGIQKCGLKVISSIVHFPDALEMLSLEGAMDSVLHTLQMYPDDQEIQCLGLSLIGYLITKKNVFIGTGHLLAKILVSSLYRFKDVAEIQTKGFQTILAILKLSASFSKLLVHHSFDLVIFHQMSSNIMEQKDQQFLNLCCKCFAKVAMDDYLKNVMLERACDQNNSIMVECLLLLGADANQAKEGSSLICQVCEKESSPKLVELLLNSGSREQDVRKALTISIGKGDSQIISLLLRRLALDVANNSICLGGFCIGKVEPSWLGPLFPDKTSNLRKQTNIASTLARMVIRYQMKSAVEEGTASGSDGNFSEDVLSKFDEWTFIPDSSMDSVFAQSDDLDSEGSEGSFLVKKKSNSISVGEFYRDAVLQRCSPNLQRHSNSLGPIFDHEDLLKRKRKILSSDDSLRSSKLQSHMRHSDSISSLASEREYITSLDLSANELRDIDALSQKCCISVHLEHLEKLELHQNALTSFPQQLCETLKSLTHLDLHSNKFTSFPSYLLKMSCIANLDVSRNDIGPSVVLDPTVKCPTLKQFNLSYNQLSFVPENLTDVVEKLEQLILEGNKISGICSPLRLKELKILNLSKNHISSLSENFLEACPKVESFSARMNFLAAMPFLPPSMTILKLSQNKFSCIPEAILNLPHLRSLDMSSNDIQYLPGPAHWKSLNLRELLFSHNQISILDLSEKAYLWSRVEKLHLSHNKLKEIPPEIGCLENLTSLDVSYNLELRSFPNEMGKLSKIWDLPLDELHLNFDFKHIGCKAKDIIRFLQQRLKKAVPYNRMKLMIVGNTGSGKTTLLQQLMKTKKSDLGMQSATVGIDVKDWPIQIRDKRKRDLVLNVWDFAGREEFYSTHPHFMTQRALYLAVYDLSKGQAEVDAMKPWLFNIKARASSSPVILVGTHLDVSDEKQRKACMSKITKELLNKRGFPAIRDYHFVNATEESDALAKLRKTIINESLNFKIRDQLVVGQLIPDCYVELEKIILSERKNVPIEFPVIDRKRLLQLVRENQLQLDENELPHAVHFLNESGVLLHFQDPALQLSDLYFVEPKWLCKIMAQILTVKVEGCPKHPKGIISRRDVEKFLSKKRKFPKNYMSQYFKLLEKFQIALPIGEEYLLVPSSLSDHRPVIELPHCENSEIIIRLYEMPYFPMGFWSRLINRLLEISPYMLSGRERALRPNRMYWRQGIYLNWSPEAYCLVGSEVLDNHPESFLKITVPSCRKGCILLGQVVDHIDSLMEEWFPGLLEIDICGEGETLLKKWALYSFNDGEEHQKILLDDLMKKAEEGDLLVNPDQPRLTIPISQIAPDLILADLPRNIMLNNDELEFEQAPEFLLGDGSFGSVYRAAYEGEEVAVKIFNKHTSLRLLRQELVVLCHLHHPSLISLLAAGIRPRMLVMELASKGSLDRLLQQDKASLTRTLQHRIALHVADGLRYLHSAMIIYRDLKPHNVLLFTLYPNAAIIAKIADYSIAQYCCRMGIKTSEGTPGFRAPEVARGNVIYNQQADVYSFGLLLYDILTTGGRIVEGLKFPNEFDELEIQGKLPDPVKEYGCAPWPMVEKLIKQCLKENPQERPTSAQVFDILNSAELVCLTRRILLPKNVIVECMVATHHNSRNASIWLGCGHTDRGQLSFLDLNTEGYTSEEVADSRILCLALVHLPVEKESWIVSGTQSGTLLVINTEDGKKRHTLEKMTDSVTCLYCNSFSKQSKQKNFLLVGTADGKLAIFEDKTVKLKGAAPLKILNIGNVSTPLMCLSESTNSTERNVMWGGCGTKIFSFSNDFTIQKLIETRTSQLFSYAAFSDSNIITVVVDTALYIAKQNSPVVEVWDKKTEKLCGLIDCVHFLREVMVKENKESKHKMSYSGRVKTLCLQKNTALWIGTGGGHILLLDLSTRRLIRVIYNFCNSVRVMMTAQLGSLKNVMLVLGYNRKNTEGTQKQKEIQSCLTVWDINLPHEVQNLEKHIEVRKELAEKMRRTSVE

| Structure (SMILES) | IC50 |
| --- | --- |
| CCNc1sc(-c2cc[nH]n2)c2c1C(=O)CC(C)(C)C2 [Example 38, 3-(Ethylamino)-6,6-dimethyl-1-(1H-pyrazol-3-yl)-6,7-dihydro-2-benzothiophen-4(5H)-one] | 0.29 µM |
| CC1(C)CC(=O)c2c(NC3CCCCC3)sc(-c3cc[nH]n3)c2C1 [Example 39, 3-(Cyclohexylaminn)-6,6-dimethyl-1-(1H-pyrazol-3-yl)-6,7-dihydro-2-benzothiophen-4(5H)-one] | 0.24 µM |
| CC1(C)CC(=O)c2c(N3CCC3)sc(-c3cc[nH]n3)c2C1 [Example 40, 3-(Azetidin-1-yl)-6,6-dimethyl-1-(1H-pyrazol-3-yl)-6,7-dihydro-2-benzothiophen-4(5H)-one] | 0.58 µM |
| CN(C)c1sc(-c2cc[nH]n2)c2c1C(=O)CC(C)(C)C2 [Example 41, 3-(Dimethylamino)-6,6-dimethyl-1-(1H-pyrazol-3-yl)-6,7-dihydro-2-benzothiophen-4(5H)-one] | 2 µM |
| CN1CCN(CCCNc2sc(-c3cc[nH]n3)c3c2C(=O)CC(C)(C)C3)CC1 [Example 42, 6,6-Dimethyl-3-{[3-(4-methylpiperazin-1-yl)propyl]amino}-1-(1H-pyrazol-3-yl)-6,7-dihydro-2-benzothiophen-4(5H)-one] | 0.42 µM |
| CN1CCN(c2sc(-c3cc[nH]n3)c3c2C(=O)CC(C)(C)C3)CC1 [Example 43, 6,6-Dimethyl-3-(4-methylpiperazin-1-yl)-1-(1H-pyrazol-3-yl)-6,7-dihydro-2-benzothiophen-4(5H)-one] | 4 µM |
| CC1(C)CC(=O)c2c(NCc3ccco3)sc(-c3cc[nH]n3)c2C1 [Example 44, 3-[(Furan-2-ylmethyl)amino]-6,6-dimethyl-1-(1H-pyrazol-3-yl)-6,7-dihydro-2-benzothiophen-4(5H)-one] | 0.38 µM |
| CC1(C)CC(=O)c2c(NCCN3CCOCC3)sc(-c3cc[nH]n3)c2C1 [Example 45, 6,6-Dimethyl-3-{[2-(morpholin-4-yl)ethyl]amino}-1-(1H-pyrazol-3-yl)-6,7-dihydro-2-benzothiophen-4(5H)-one] | 0.25 µM |
| CC1(C)CC(=O)c2c(NC3CC3)sc(-c3cc[nH]n3)c2C1 [Example 46, 3-(Cyclopropylamino)-6,6-dimethyl-1-(1H-pyrazol-3-yl)-6,7-dihydro-2-benzothiophen-4(5H)-one] | 0.21 µM |
| CC1(C)CC(=O)c2c(NCCc3ccccn3)sc(-c3cc[nH]n3)c2C1 [Example 47, 6,6-Dimethyl-1-(1H-pyrazol-3-yl)-3-{[2-(pyridin-2-yl)ethyl]amino}-6,7-dihydro-2-benzothiophen-4(5H)-one] | 0.29 µM |
| CC1(C)CC(=O)c2c(NCc3ccccn3)sc(-c3cc[nH]n3)c2C1 [Example 48, 6,6-Dimethyl-1-(1H-pyrazol-3-yl)-3-[(pyridin-2-ylmethyl)amino]-6,7-dihydro-2-benzothiophen-4(5H)-one] | 0.62 µM |
| CC1(C)CC(=O)c2c(NC3CCCC3)sc(-c3cc[nH]n3)c2C1 [Example 49, 3-(Cyclopentylamino)-6,6-dimethyl-1-(1H-pyrazol-3-yl)-6,7-dihydro-2-benzothiophen-4(5H)-one] | 0.097 µM |
| CC1(C)CC(=O)c2c(NCCCCCCO)sc(-c3cc[nH]n3)c2C1 [Example 50, 3-[(6-Hydroxyhexyl)amino]-6,6-dimethyl-1-(1H-pyrazol-3-yl)-6,7-dihydro-2-benzothiophen-4(5H)-one] | 0.18 µM |
| CC1(C)CC(=O)c2c(N[C@H]3CC[C@H](O)CC3)sc(-c3cc[nH]n3)c2C1 [Example 51, 3-[(trans-4-Hydroxycyclohexyl)amino]-6,6-dimethyl-1-(1H-pyrazol-3-yl)-6,7-dihydro-2-benzothiophen-4(5H)-one] | 0.22 µM |
| CC1(C)CC(=O)c2c(OC3CCCC3)sc(-c3cc[nH]n3)c2C1 [Example 52, 3-(Cyclopentyloxy)-6,6-dimethyl-1-(1H-pyrazol-3-yl)-6,7-dihydro-2-benzothiophen-4(5H)-one] | 0.3 µM |
| CC1(C)CC(=O)c2c(OC3CCC3)sc(-c3cc[nH]n3)c2C1 [Example 53, 3-(Cyclobutylexy)-6,6-dimethyl-1-(1H-pyrazol-3-yl)-6,7-dihydro-2-benzothiophen-4(5H)-one] | 0.43 µM |
| CC(C)Oc1sc(-c2cc[nH]n2)c2c1C(=O)CC(C)(C)C2 [Example 54, 6,6-Dimethyl-3-(propan-2-yloxy)-1-(1H-pyrazol-3-yl)-6,7-dihydro-2-benzothiophen-4(5H)-one] | 0.79 µM |
| CC1(C)CC(=O)c2c(Oc3ccccc3)sc(-c3cc[nH]n3)c2C1 [Example 55, 6,6-Dimethyl-3-phenoxy-1-(1H-pyrazol-3-yl)-6,7-dihydro-2-benzothiophen-4(5H)-one] | 4.2 µM |
| CCCc1sc(-c2cc[nH]n2)c2c1C(=O)CC(C)(C)C2 [Example 56, 6,6-Dimethyl-3-propyl-1-(1H-pyrazol-3-yl)-6,7-dihydro-2-benzothiophen-4(5H)-one] | 2.2 µM |
| CC(C)NC(=O)n1ccc(-c2sc(SC3CCCC3)c3c2CC(C)(C)CC3=O)n1 [Example 57] | 1.4 µM |
| COc1ccc(NC(=O)n2ccc(-c3sc(SC4CCCC4)c4c3CC(C)(C)CC4=O)n2)cc1 [Example 58, 3-[3-(Cyclopentylsulfanyl)-6,6-dimethyl-4-oxo-4,5,6,7-tetrahydro-2-benzothiophen-1-yl]-N-(4-methoxyphenyl)-1H-pyrazole-1-carboxamide] | 0.11 µM |
| CC1(C)CC(=O)c2c(SC3CCCC3)sc(-c3ccn(C(=O)Nc4ccc(C(F)(F)F)cc4)n3)c2C1 [Example 59, 3-[3-(Cyclopentylsulfanyl)-6,6-dimethyl-4-oxo-4,5,6,7-tetrahydro-2-benzothiophen-1-yl]-N-[4-(trifluoromethyl)phenyl]-1H-pyrazole-1-carboxamide] | 0.093 µM |
| CC1(C)CC(=O)c2c(SC3CCCC3)sc(-c3ccn(C(=O)NCc4ccccc4)n3)c2C1 [Example 60, N-benzyl-3-[3-(Cyclopentylsulfanyl)-6,6-dimethyl-4-oxo-4,5,6,7-tetrahydro-2-benzothiophen-1-yl]-1H-pyrazole-1-carboxamide] | 0.52 µM |
| CSc1cccc(NC(=O)n2ccc(-c3sc(SC4CCCC4)c4c3CC(C)(C)CC4=O)n2)c1 [Example 61, 3-[3-(Cyclopentylsulfanyl)-6,6-dimethyl-4-oxo-4,5,6,7-tetrahydro-2-benzothiophen-1-yl]-N-[3-(methylsulfanyl)phenyl]-1H-pyrazole-1-carboxamide] | 0.11 µM |
| CC1(C)CC(=O)c2c(SC3CCCC3)sc(-c3ccn(C(=O)Nc4ccc(Cl)cc4)n3)c2C1 [Example 62, N-(4-Chlorophenyl)-3-[3-(cyclopentylsulfanyl)-6,6-dimethyl-4-oxo-4,5,6,7-tetrahydro-2-benzothiophen-1-yl]-1H-pyrazole-1-carboxamide] | 0.086 µM |
| CC1(C)CC(=O)c2c(SC3CCCC3)sc(-c3ccn(C(=O)Nc4ccc5ccccc5c4)n3)c2C1 [Example 63, 3-[3-(Cyclopentylsulfanyl)-6,6-dimethyl-4-oxo-4,5,6,7-tetrahydro-2-benzothiophen-1-yl]-N-(naphthalen-2-yl)-1H-pyrazole-1-carboxamide] | 0.11 µM |
| CC1(C)CC(=O)c2c(SC3CCCC3)sc(-c3ccn(C(=O)Nc4ccc(C#N)cc4)n3)c2C1 [Example 64, N-(4-Cyanophenyl)-3-[3-(cyclopentylsulfanyl)-6,6-dimethyl-4-oxo-4,5,6,7-tetrahydro-2-benzothiophen-1-yl]-1H-pyrazole-1-carboxamide] | 0.085 µM |
